Assay [1] addresses hα6 + WT hβ2 + hβ3^V9’S nAChR (Homo sapiens, UniProt P17787+Q15825). The conditions noted are these: 100 μM nicotine; 3 days after cRNA injection. The method, then:
(§1) We planned to introduce identical amounts of cRNA, presumably producing equal amounts of each subunit protein, into oocytes largely due to lack of information about the levels of mRNA for each subunits that compose α6*-nAChRs in neurons or other cells. Concentrations of cRNAs for each nAChR α and β subunits (WT, mutant or variant) were adjusted to 500 ng μL^−1. We provisionally assumed that hα6 or its variants in association with hβ2 or hβ4 subunits would form complexes having 2:3 and/or 3:2 ratios of the indicated subunits and that oocytes also injected with WT or mutant form of β3 subunits (i.e., β3^V9’S) would express nAChR with 2:2:1 ratios of α:β:(β3 or β3^V9’S) subunits. For expression of binary nAChRs (i.e., two subunit containing nAChRs; α + β but not β3) cRNA mixtures were prepared by mixing 1 μL of cRNA for each subunit and an additional μL of RNAse free water (i.e., total volume 3 μL). Similarly for expression of ternary nAChRs [i.e., three subunit containing nAChRs; (α + β) + (β3 or β3^V9’S)] cRNA mixtures were prepared by mixing 1 μL of cRNA for each subunit. Several preparations of each mixture were prepared and stored at −80°C until further use. Injection of 138 nL of cRNA, out of 3 μL cRNA mixtures, into each oocyte would deliver ~23 ng of cRNA for each subunit whether binary or ternary nAChRs are expressed.
(§2) Two to 5 days after injection, oocytes were placed in a small-volume chamber and continuously perfused with OR2. The chamber was grounded through an agarose bridge. The oocytes were voltage-clamped at −70 mV (unless otherwise noted) to measure agonist or antagonist induced currents using Axoclamp 900A and pClamp 10.2 software (Molecular Devices, Sunnyvale, CA). The current signal was low-pass filtered at 10 Hz with the built-in low-pass Bessel filter in the Axoclamp 900A and digitized at 20 Hz with Axon Digidata1440A and pClamp10. […] Drugs (agonists and antagonists) were prepared daily in OR2. Drug was applied using a Valvelink 8.2 perfusion system (Automate scientific, Berkeley, CA). […] Then for the purpose of comparison electrophysiological recordings were performed in a given day in a given batch of oocytes following the same order of injections. […] All hβ4*-nAChR recordings were done in similar conditions to facilitate comparisons between hα6hβ4- and hα6hβ4hβ3-nAChRs. All electrophysiological measurements were conducted or checked in at least two batches of oocytes.
(§3) Raw data was collected and processed in part using pClamp 10.2 (Molecular Devices, Sunnyvale, CA), Origin 7.5 (OriginLab Corporation, Northampton, MA) and a spreadsheet (Excel; Microsoft, Bellevue, WA). Peak current amplitudes (Imax) are reported as mean ± SEM (for results from at least three oocytes, i.e., n = 3).

The target in assay [2] is hα6(A112V) + WT hβ2 + hβ3^V9’S nAChR (Homo sapiens, UniProt P17787+Q15825, A112V). The settings on record: 100 μM nicotine; 3 days after cRNA injection. The protocol:
as §1, §2, §3

In assay [3] the target is hα6(A112V) + codon optimized hβ2 + hβ3^V9’S nAChR (Homo sapiens, UniProt P17787+Q15825, A112V). The conditions noted are these: 100 μM nicotine; oocytes clamped at −70 mV. The method, then: as §1, §2, §3
In assay [4] the test system is hα6(D199Y) + WT hβ2 + hβ3^V9’S nAChR. The settings on record: 100 μM nicotine; higher, p < 0.05. The protocol:
as §1, §2, §3

Another assay concerns the target hα6(D92E) + hβ4 nAChR (Homo sapiens, UniProt P30926+Q15825, D92E). The settings on record: 100 μM nicotine; oocytes clamped at −70 mV. The method, then: as §1, §2, §3
For assay [5], the target named is hα6(E101K) + codon optimized hβ2 + hβ3^V9’S nAChR (Homo sapiens, UniProt P17787+Q15825, E101K). The conditions noted are these: 100 μM nicotine; oocytes clamped at −70 mV. The protocol:
as §1, §2, §3

The target of assay [6] is hα6(I226T) + WT hβ2 + hβ3^V9’S nAChR (Homo sapiens, UniProt P17787+Q15825, I226T). The settings on record: 100 μM nicotine. The method, then: as §1, §2, §3
For assay [7], the target named is hα6(I226T) + codon optimized hβ2 + hβ3^V9’S nAChR (Homo sapiens, UniProt P17787+Q15825, I226T). The conditions noted are these: 100 μM nicotine; oocytes clamped at −70 mV. The method, then:
as §1, §2, §3

A further assay deals with hα6(I226T) + hβ4 nAChR (Homo sapiens, UniProt P30926+Q15825, I226T). The settings on record: 100 μM nicotine; oocytes clamped at −70 mV. The protocol:
as §1, §2, §3

The target in assay [8] is hα6(N171K) + WT hβ2 + hβ3^V9’S nAChR (Homo sapiens, UniProt P17787+Q15825, N171K). The conditions noted are these: nicotine. The method, then: as §1, §2, §3
The target in assay [9] is hα6(N203T) + hβ4 + hβ3 nAChR (Homo sapiens, UniProt P30926+Q15825, N203T). The conditions noted are these: 100 μM nicotine; oocytes clamped at −70 mV. The protocol:
as §1, §2, §3

Another assay deals with hα6(N46K) + hβ4 nAChR (Homo sapiens, UniProt P30926+Q15825, N46K). The settings on record: 100 μM nicotine; oocytes clamped at −70 mV. The protocol:
as §1, §2, §3

Assay [10] deals with hα6(R87C) + hβ4 + hβ3 nAChR (Homo sapiens, UniProt P30926+Q15825, R87C). The conditions noted are these: nicotine. The method, then: as §1, §2, §3
In assay [11] the target is hα6(S156R) + WT hβ2 + hβ3^V9’S nAChR (Homo sapiens, UniProt P17787+Q15825, S156R). The settings on record: nicotine. The protocol:
as §1, §2, §3

Assay [12] concerns the target hα6(S233C) + codon optimized hβ2 + hβ3^V9’S nAChR (Homo sapiens, UniProt P17787+Q15825, S233C). The conditions noted are these: 100 μM nicotine; oocytes clamped at −70 mV. The method, then:
as §1, §2, §3

Assay [13] concerns the target hα6(S43P) + WT hβ2 + hβ3^V9’S nAChR (Homo sapiens, UniProt P17787+Q15825, S43P). The conditions noted are these: nicotine. The method, then:
as §1, §2, §3

Assay [14] deals with hα6(S43P) + codon optimized hβ2 + hβ3^V9’S nAChR (Homo sapiens, UniProt P17787+Q15825, S43P). The settings on record: 100 μM nicotine; oocytes clamped at −70 mV. The method, then:
as §1, §2, §3

Assay [15] deals with hα6(S43P) + hβ4 + hβ3 nAChR (Homo sapiens, UniProt P30926+Q15825, S43P). The settings on record: 100 μM nicotine; oocytes clamped at −70 mV. The method, then:
as §1, §2, §3

SMILES strings stand for the structures. Where “and” joins values, the source holds several entries; their conditions need not be identical. Identical values can stand only once.

Sequence of hα6(I226T) + WT hβ2 + hβ3^V9’S nAChR (Q15825 26-494 I226T): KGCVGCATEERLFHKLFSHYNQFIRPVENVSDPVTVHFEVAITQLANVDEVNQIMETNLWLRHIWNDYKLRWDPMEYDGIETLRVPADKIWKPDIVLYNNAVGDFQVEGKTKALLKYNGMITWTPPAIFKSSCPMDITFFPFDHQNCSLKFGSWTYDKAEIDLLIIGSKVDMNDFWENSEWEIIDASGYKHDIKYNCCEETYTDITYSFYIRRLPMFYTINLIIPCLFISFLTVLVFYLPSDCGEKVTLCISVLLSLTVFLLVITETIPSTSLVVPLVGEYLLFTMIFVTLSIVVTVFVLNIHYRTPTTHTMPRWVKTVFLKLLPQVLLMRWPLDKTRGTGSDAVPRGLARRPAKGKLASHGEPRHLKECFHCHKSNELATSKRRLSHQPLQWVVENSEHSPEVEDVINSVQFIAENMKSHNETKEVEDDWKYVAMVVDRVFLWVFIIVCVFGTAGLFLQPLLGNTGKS
Sequence of hα6(I226T) + WT hβ2 + hβ3^V9’S nAChR (P17787 26-502): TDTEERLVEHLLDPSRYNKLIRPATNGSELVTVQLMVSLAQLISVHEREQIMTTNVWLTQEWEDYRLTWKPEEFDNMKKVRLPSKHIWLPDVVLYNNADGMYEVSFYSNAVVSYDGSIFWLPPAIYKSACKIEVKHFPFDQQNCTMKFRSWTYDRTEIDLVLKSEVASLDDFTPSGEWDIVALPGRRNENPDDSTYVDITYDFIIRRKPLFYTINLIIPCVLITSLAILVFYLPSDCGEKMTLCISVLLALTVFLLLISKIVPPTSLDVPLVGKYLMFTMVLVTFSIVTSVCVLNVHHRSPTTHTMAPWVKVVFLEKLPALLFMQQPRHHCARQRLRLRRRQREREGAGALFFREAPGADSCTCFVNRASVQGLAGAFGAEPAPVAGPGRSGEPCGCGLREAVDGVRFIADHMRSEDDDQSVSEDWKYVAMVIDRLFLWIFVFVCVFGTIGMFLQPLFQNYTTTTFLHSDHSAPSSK
Sequence of hα6(I226T) + WT hβ2 + hβ3^V9’S nAChR (Q05901 25-458 V273S partner limits assumed): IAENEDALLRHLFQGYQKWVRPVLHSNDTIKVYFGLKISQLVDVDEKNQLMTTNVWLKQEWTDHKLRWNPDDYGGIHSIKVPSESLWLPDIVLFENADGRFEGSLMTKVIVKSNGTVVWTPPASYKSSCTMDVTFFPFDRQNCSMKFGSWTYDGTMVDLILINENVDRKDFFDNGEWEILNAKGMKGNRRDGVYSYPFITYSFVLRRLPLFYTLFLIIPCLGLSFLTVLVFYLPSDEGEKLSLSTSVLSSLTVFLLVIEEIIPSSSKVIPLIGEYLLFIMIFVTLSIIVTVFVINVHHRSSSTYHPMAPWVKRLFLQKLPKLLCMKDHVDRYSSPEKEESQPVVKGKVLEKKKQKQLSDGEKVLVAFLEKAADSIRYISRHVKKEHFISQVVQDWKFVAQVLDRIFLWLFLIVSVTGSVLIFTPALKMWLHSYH
Sequence of hα6 + WT hβ2 + hβ3^V9’S nAChR (Q15825 26-494): as the sequence (Q15825 26-494 I226T) above, with T201I counted along it
Sequence of hα6 + WT hβ2 + hβ3^V9’S nAChR (P17787 26-502): as the sequence (P17787 26-502) above
Sequence of hα6 + WT hβ2 + hβ3^V9’S nAChR (Q05901 22-458 V273S partner): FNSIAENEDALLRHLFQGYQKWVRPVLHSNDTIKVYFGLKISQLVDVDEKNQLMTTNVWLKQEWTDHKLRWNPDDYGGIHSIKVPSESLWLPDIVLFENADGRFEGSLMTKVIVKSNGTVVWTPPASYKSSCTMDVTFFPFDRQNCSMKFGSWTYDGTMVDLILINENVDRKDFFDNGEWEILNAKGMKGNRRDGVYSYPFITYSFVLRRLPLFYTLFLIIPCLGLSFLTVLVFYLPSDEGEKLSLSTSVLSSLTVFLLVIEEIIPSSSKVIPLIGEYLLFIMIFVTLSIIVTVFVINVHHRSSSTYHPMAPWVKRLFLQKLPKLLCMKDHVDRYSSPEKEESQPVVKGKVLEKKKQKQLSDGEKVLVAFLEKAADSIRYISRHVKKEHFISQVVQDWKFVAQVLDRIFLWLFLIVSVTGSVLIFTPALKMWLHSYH
Sequence of hα6(S233C) + codon optimized hβ2 + hβ3^V9’S nAChR (Q15825 26-494 S233C): as the sequence (Q15825 26-494 I226T) above, with T201I, S208C counted along it
Sequence of hα6(S233C) + codon optimized hβ2 + hβ3^V9’S nAChR (P17787 26-502): as the sequence (P17787 26-502) above
Sequence of hα6(S233C) + codon optimized hβ2 + hβ3^V9’S nAChR (Q05901 25-458 V273S partner limits assumed): as the sequence (Q05901 25-458 V273S partner limits assumed) above

Take `CN1CCC[C@H]1c1cccnc1` [nicotine, L-nicotine]: the peak current response in [1] was 15 ± 2 nA and 15-30 nA; in assay [2] it was 15-30 nA; in assay [6] (3 days after cRNA injection) it was 15-30 nA. In addition, the “peak current (Imax, mean ± SE)” value is listed as 293 ± 24 nA in [3]; 19 ± 2 nA on hα6(D92E) + hβ4 nAChR; 551 ± 156 nA in assay [5]; 753 ± 137 nA in assay [7]; 81 ± 10 nA at hα6(I226T) + hβ4 nAChR; 78 ± 11 nA on hα6(N46K) + hβ4 nAChR. Further, the results for the “peak current (Imax, mean ± SE)” value in assay [12] and in assay [14] were 1582 ± 221 nA and 47 ± 9 nA, respectively. The “peak current response relative to hα6hβ2hβ3^V9’S-nAChRs” value in assay [4] is on record as 2-5 fold. For the same compound, the “Mean (±SEM) current response” value in [6] (5 days after injection) was 123 ± 40 nA. For the same compound, the current response result in [8] is reported as “did not yield current responses”; in [10], “did not elicit current responses”; in [11] it was “did not yield current responses”; in assay [13], “did not yield current responses”. Further, the entries for the “Mean (±SE) peak current response” value in assay [9] and in [15] were 371 ± 68 nA and 208 ± 22 nA, respectively.

The record behind these values is publication PMC4022547 (Molecular Brain, 2014).
